# Values of other authors in US10610707B2, “Oral care product for sensitive enamel care” (Colgate-Palmolive Company, priority 2010, dated 2020).
# Conditions: pH below which the compound dissolves, consuming acid
row,Structure (SMILES),pH
1,"[O]=[Zn] [ZnO, Zinc oxide]",approximately 6.95
2,O=C([O-])[O-].[Ca+2] [calcium carbonate],approximately 8.75
